Experimental data published in publication PMC11568265, “Exploring peptide dendrimers for intestinal lymphatic targeting: formulation and evaluation of peptide dendrimer conjugated liposomes for enhancing the oral bioavailability of Asenapine maleate” (Scientific Reports, 2024).
Structures can show the parent of a compound that is named as a salt. Marks after values point to notes of the source that are not given here.

How the values were obtained:
[1] = test system: Raji B cells; design: method as in PMID 30874464, PMID 32228915, doi:10.1016/j.jddst.2022.103275; details: highest concentration of ASPM tested; cited from earlier work
[2] = design: method as in PMID 30669881; details: pure ASPM dispersion, intestinal fluid (phosphate buffer pH 6.8), within 180 min; cited from earlier work
[3] = cited from earlier work
[4] = test system: Caco-2 cells; design: method as in PMID 30874464, PMID 32228915, doi:10.1016/j.jddst.2022.103275; details: highest concentration of ASPM tested; cited from earlier work
[5] = Ex vivo drug permeation, everted ileum sac model; type: in vitro ADME, Sprague–Dawley (SD) rats; details: male, Sprague-Dawley, pH 7.4, everted rat ileum sac
Procedure: (§1) Preclinical ex vivo and in vivo studies were conducted on male Sprague–Dawley (SD) rats (200–250 g). The SD rats were bred at the Central Animal Research Facility, Manipal Academy of Higher Education, Manipal, India. The SD rats were exposed to a light–dark cycle (12 h each) and had free access to food and water. The rats used in the study were housed in cages at 25 ± 2 °C. All the experimental procedures and animal handling were carried out following the CCSEA (Committee for Control and Supervision of Experiments on Animals, Ministry of Fisheries, Animal Husbandry and Dairying, Government of India) guidelines, and in accordance with ARRIVE guidelines as well. All the animal experimental protocols were approved by the Institutional Animal Ethical Committee, Kasturba Medical College, MAHE, Manipal (Approval No: IAEC/KMC/49/2020). An attempt was made to use the minimum number of rats in an ethically responsible manner.
The absorption of the drug through the ileum portion of the small intestine was determined by an ex vivo drug permeation study using an everted ileum sac model. Overnight-fasted SD rats were sacrificed humanely, and the small intestine was isolated (≈ 10 cm). The isolated ileum segment was carefully everted and pushed completely over a capillary tube. The ileum was then tied between the cannulated parts of the U-shaped glass tube, which was used as a perfusion apparatus. The perfusion apparatus was then placed in a beaker containing 450 mL of Ringer’s solution (pH 7.4). The medium was stirred using magnetic beads at 100 rpm and 37 °C. Plain ASPM solution/liposomal dispersion was added to the beaker. The samples were withdrawn from the cannulated arm of the U tube at predetermined time points of 1, 2 and 3 h, and the same volume of the withdrawn sample was replaced by the addition of fresh Ringer’s solution. The amount of drug absorbed was calculated by analysing the samples using HPLC[22].

[6] = test system: L-DOPA-carbidopa-induced hyper locomotor activity; test: Psychostimulant-induced hyperactivity model, locomotor activity (LMA) test; type: in vivo, Sprague–Dawley (SD) rats; details: L-DOPA-carbidopa-treated rats, ASPM dose 5 mg/kg p.o.
Procedure: as §1
The pharmacodynamic study was performed using an induced locomotor activity (LMA) test with a psychostimulant-induced hyperactivity model. The ability of the optimized formulation to reverse hyperactivity in rats was studied. […] A digital Actophotometer (Ikon Instruments, New Delhi, India) was used to assess LMA at 5 min intervals at 1, 2 and 3 h. The LMA was assessed after 1 h of L-DOPA-carbidopa administration in group II. ASPM was administered after 30 min of L-DOPA-carbidopa administration, and LMA was noted after 30 min of ASPM administration in groups III, IV and V.

[7] = Oral pharmacokinetic study in rats; type: in vivo, Sprague–Dawley (SD) rats; details: SD rats, 5 mg/kg ASPM orally, n = 6
Procedure: as §1
Overnight-fasted SD rats were divided into 3 groups (n = 6). Group I, ASPM solution; Group II, LP-ASPM; Group III, LP-PD-2. All the groups received ASPM at a dose of 5 mg/kg body weight orally. Blood was drawn from the retro-orbital sinus at different time points between 0 and 48 h in tubes containing disodium EDTA. Blood was centrifuged at 5000 rpm for 10 min, and the clear plasma from the supernatant layer was collected and stored at -80 °C until analysis. The amount of ASPM in the samples was analysed by RP-HPLC. The detailed bioanalytical method development for the quantification of ASPM in rat plasma is given in Supplementary information; Section S3; Table S4; Figure S7. Pharmacokinetic parameters were calculated using PK Solutions 2.0™ (Summit Research Services, Montrose, Colorado).

[8] = male, Sprague-Dawley, rat, plasma, po

Question: Which cells remaining viable [1] does the source give for CN1CC2c3ccccc3Oc3ccc(Cl)cc3C2C1 (stereo not shown) [ASPM, Asenapine maleate] here?
Answer: more than 80%

Question: What about the drug release [2] of the same compound?
Answer: more than 90%

Question: What about the bioavailability ([3]; marketed fast-dissolving sublingual tablet, ref 7 (printed at next sentence)) of the same compound?
Answer: 35%

Question: And the oral bioavailability ([3]; oral administration)?
Answer: < 2%

Question: What about the cells remaining viable [4] of the same compound?
Answer: more than 80%

Question: And the Papp at 1 h ([5]; 1 h)?
Answer: 291 ± 26 ×10⁻⁶ cm/s

Question: What about the Papp at 2 h ([5]; 2 h) of the same compound?
Answer: 231 ± 31 ×10⁻⁶ cm/s

Question: What about the Papp at 3 h ([5]; 3 h) of the same compound?
Answer: 206 ± 30 ×10⁻⁶ cm/s

Question: And the Locomotor counts ([6]; 1 h)?
Answer: 121 ± 17*^$

Question: What about the Locomotor counts ([6]; 2 h) of the same compound?
Answer: 118 ± 18*^$

Question: What about the Locomotor counts ([6]; 3 h) of the same compound?
Answer: 110 ± 15*^$

Question: And the t1/2 ([7]; 5 mg/kg)?
Answer: 25.52 ± 2.15 h

Question: And the half-life ([7]; male, Sprague-Dawley, rat, plasma, po, 5 mg/kg)?
Answer: 25.2 ± 2.15 h

Question: And the AUC(0-inf) [7, 8]?
Answer: 3640 ± 347 ng·h/mL

Question: And the AUC(0-t) [7, 8]?
Answer: 2660 ± 221 ng·h/mL

Question: And the Cmax [7, 8]?
Answer: 131 ± 7.01 ng/mL

Question: And the MRT [7, 8]?
Answer: 36 ± 3.16 h

Question: And the Tmax [7, 8]?
Answer: 1 h

Question: What about the k el [7, 8] of the same compound?
Answer: 7.53e-06 s⁻¹
